From patent US8293774B2, “Optically active (R)-aryloxypropionic acid amides and herbicidal composition comprising same” (Kyung Nong Corporation, priority 2007, dated 2012)

What was measured:
[1] = system: HORVU (Hordeum vulgare L., barley); test: Weed control test, foliage treatment (Test Example 1, Table 7); settings: in vivo
Experimental: (§1) Seeds of rice, wheat, soy bean, barley, corn, common sorgum, barnyard grass, large crabgrass, creek grass, green foxtail and fall panicum were placed in sandy loam in 600 cm^2 pots and covered with soil. After keeping the pots in a greenhouse at 20 to 30° C. allowing growth of the plants to the 3-leaf stage of the barnyard grass, 2,000 l/ha of an emulsion obtained by diluting with water a mixture of 1 part by weight of a test compound, 5 parts by weight of acetone and 1 part by weight of an emulsifying agent (Tween 80, Junsei) was applied to the surface of the foliage of the plants. The plant damage at 10 days and 20 days after the foliage treatment was visually evaluated from the level of 1 to 100% by comparison with the untreated control: […]

[2] = system: GLXMA (Glycine max(L.) MERR, soy bean); test: as above; settings: in vivo
Experimental: as §1

[3] = system: TRZAW (Tritium aestivum L., wheat); test: as above; settings: in vivo
Experimental: as §1

[4] = system: ORYSA (Oryza sativa cv. Dongjin, rice); test: as above; settings: in vivo
Experimental: as §1

[5] = system: PANDI (Panium dichotomiflorum Michx, fall panicum); test: as above; format: in vivo; settings: Panicum dichotomiflorum, foliar, read-out: Plant damage (herbicidal activity), visually evaluated, PANDI; for pest or weed control at 25 g/ha: 0.025 kg/ha; for pest or weed control at 100 g/ha: 0.1 kg/ha; for pest or weed control at 200 g/ha: 0.2 kg/ha
Experimental: as §1

[6] = system: SORBI (Andropogon sorghum, common sorgum); test: as above; format: in vivo; settings: Sorghum bicolor, foliar, read-out: Plant damage (herbicidal activity), visually evaluated, SORBI; for pest or weed control at 25 g/ha: 0.025 kg/ha; for pest or weed control at 100 g/ha: 0.1 kg/ha; for pest or weed control at 200 g/ha: 0.2 kg/ha
Experimental: as §1

[7] = system: ARTHIS (Arthraxon hispidus (Thunb.) Makino, creek grass); test: as above; format: in vivo; settings: Arthraxon hispidus, foliar, read-out: Plant damage (herbicidal activity), visually evaluated, ARTHIS; for pest or weed control at 25 g/ha: 0.025 kg/ha; for pest or weed control at 100 g/ha: 0.1 kg/ha; for pest or weed control at 200 g/ha: 0.2 kg/ha
Experimental: as §1

[8] = system: ZEAMX (Zea mays L., corn); test: as above; format: in vivo; settings: Zea mays, foliar, read-out: Plant damage (herbicidal activity), visually evaluated, ZEAMX; for plant injury at 25 g/ha: 0.025 kg/ha; for plant injury at 100 g/ha: 0.1 kg/ha; for plant injury at 200 g/ha: 0.2 kg/ha
Experimental: as §1

[9] = system: DIGSA (Digitaria Sanguinalis (L.) SCOP, large crabgrass); test: as above; format: in vivo; settings: Digitaria sanguinalis, foliar, read-out: Plant damage (herbicidal activity), visually evaluated, DIGSA; for pest or weed control at 25 g/ha: 0.025 kg/ha; for pest or weed control at 100 g/ha: 0.1 kg/ha; for pest or weed control at 200 g/ha: 0.2 kg/ha
Experimental: as §1

[10] = system: ECHOG (Echinoch crus-galli Beauv. var. caudata Kitagawa, barnyard grass); test: as above; format: in vivo; settings: Echinochloa crus-galli, foliar, 3-leaf stage, read-out: Plant damage (herbicidal activity), visually evaluated, ECHOG; for pest or weed control at 25 g/ha: 0.025 kg/ha; for pest or weed control at 100 g/ha: 0.1 kg/ha; for pest or weed control at 200 g/ha: 0.2 kg/ha
Experimental: as §1

[11] = system: SETVIR (Setaria viridis (L.) Beauv, green foxtail); test: as above; format: in vivo; settings: Setaria viridis, foliar, read-out: Plant damage (herbicidal activity), visually evaluated, SETVIR; for pest or weed control at 25 g/ha: 0.025 kg/ha; for pest or weed control at 100 g/ha: 0.1 kg/ha; for pest or weed control at 200 g/ha: 0.2 kg/ha
Experimental: as §1

Barnyard grass = test: Weed control test, 4-leaf stage plants (Test Example 1, Table 8); format: in vivo, Echinoch crus-galli Beauv. var. caudata Kitagawa
From the text: as §1, with “[…],” for “After keeping the pots in a greenhouse at 20 to 30° C. allowing growth of the plants to the 3-leaf stage of the barnyard grass,”

| Compound | Plant damage (herbicidal activity), visually evaluated, HORVU [1] [%] | Plant damage (herbicidal activity), visually evaluated, GLXMA [2] [%] | Plant damage (herbicidal activity), visually evaluated, TRZAW [3] [%] | pest or weed control at 25 g/ha [5] [%] | pest or weed control at 100 g/ha [5] [%] | pest or weed control at 200 g/ha [5] [%] | pest or weed control at 25 g/ha [6] [%] | pest or weed control at 100 g/ha [6] [%] | pest or weed control at 200 g/ha [6] [%] | pest or weed control at 25 g/ha [7] [%] | pest or weed control at 100 g/ha [7] [%] | pest or weed control at 200 g/ha [7] [%] | plant injury at 25 g/ha [8] [%] | plant injury at 100 g/ha [8] [%] | plant injury at 200 g/ha [8] [%] | pest or weed control at 25 g/ha [9] [%] | pest or weed control at 100 g/ha [9] [%] | pest or weed control at 200 g/ha [9] [%] | pest or weed control at 25 g/ha [10] [%] | pest or weed control at 100 g/ha [10] [%] | further results |
| --- | --- | --- | --- | --- | --- | --- | --- | --- | --- | --- | --- | --- | --- | --- | --- | --- | --- | --- | --- | --- | --- |
| C[C@@H](Oc1ccc(Oc2ccc(C#N)cc2F)cc1)C(=O)Nc1nc2ccccc2s1 [Example 19, (R)-2-[4-(4-cyano-2-fluorophenoxy)phenoxy]propionic acid-N-(2-benzothiazolyl)amide] | 0 | 0 | 0 | 0 | 0 | 0 | 20 | 60 | 70 | 0 | 10 | 10 | 0 | 10 | 30 | 0 | 10 | 30 | 0 | 20 | Plant damage (herbicidal activity), visually evaluated, ORYSA [4]: 0%; pest or weed control at 200 g/ha [10]: 30%; pest or weed control at 25 g/ha [11]: 0%; pest or weed control at 100 g/ha [11]: 10%; pest or weed control at 200 g/ha [11]: 10% |
| C[C@@H](Oc1ccc(Oc2ccc(C#N)cc2F)cc1)C(=O)Nc1nc2ccc(Cl)cc2s1 [Example 21, (R)-2-[4-(4-cyano-2-fluorophenoxy)phenoxy]propionic acid-N-(6-chloro-2-benzothiazolyl)amide] | 0 | 0 | 0 | 0 | 70 | 70 | 0 | 20 | 50 | 0 | 70 | 70 | 20 | 90 | 100 | 0 | 20 | 90 | 20 | 70 | Plant damage (herbicidal activity), visually evaluated, ORYSA [4]: 0%; pest or weed control at 200 g/ha [10]: 90%; pest or weed control at 25 g/ha [11]: 0%; pest or weed control at 100 g/ha [11]: 70%; pest or weed control at 200 g/ha [11]: 90% |
| C[C@@H](Oc1ccc(Oc2ccc(C#N)cc2F)cc1)C(=O)Nc1nc2ccc(F)cc2s1 [Example 23, (R)-2-[4-(4-cyano-2-fluorophenoxy)phenoxy]propionic acid-N-(6-fluoro-2-benzothiazolyl)amide] | 0 | 0 | 0 | 0 | 0 | 10 | 0 | 20 | 20 | 0 | 0 | 10 | 10 | 90 | 90 | 0 | 20 | 20 | 20 | 50 | Plant damage (herbicidal activity), visually evaluated, ORYSA [4]: 0%; pest or weed control at 200 g/ha [10]: 50%; pest or weed control at 25 g/ha [11]: 0%; pest or weed control at 100 g/ha [11]: 0%; pest or weed control at 200 g/ha [11]: 20% |
| COc1ccc2nc(NC(=O)[C@@H](C)Oc3ccc(Oc4ccc(C#N)cc4F)cc3)sc2c1 [Example 27, (R)-2-[4-(4-cyano-2-fluorophenoxy)phenoxy]propionic acid-N-(6-methoxy-2-benzothiazolyl)amide] | 0 | 0 | 0 | 0 | 0 | 10 | 0 | 20 | 20 | 0 | 0 | 10 | 10 | 90 | 90 | 0 | 20 | 90 | 20 | 70 | pest or weed control at 200 g/ha [10]: 90%; pest or weed control at 25 g/ha [11]: 0%; pest or weed control at 100 g/ha [11]: 0%; pest or weed control at 200 g/ha [11]: 20% |
| Cc1ccnc(NC(=O)[C@@H](C)Oc2ccc(Oc3ccc(C#N)cc3F)cc2)c1 [Example 33, (R)-2-[4-(4-cyano-2-fluorophenoxy)phenoxy]propionic acid-N-(4-methyl-2-pyridinyl)amide] | – | – | – | – | – | – | – | – | – | – | – | – | – | – | – | – | – | – | – | – | Plant damage (herbicidal activity), visually evaluated, Barnyard grass (Barnyard grass; 0.025 kg/ha): 10%; Plant damage (herbicidal activity), visually evaluated, Barnyard grass (Barnyard grass; 0.05 kg/ha): 40%; Plant damage (herbicidal activity), visually evaluated, Barnyard grass (Barnyard grass; 0.1 kg/ha): 100%; Plant damage (herbicidal activity), visually evaluated, Barnyard grass (Barnyard grass; 0.4 kg/ha): 100% |
| C[C@@H](Oc1ccc(OC(F)=Cc2ccc(F)cc2)cc1)C(=O)Nc1nc2cc(Cl)ccc2o1 [Example 52, (R)-2-[4-(1-fluoro-2-(4-fluorophenyl)vinyloxy)phenoxy]propionic acid-N-(5-chloro-2-benzoxazolyl)amide] | 0 | 0 | 0 | 0 | 0 | 0 | 0 | 0 | 0 | 0 | 0 | 0 | 10 | 30 | 30 | 0 | 0 | 10 | 0 | 0 | pest or weed control at 200 g/ha [10]: 20%; pest or weed control at 25 g/ha [11]: 0%; pest or weed control at 100 g/ha [11]: 0%; pest or weed control at 200 g/ha [11]: 10% |
